Legend:
Assay type in all cases: functional, cell-based
A549 = assay: Cytotoxicity against human A549 cells after 24 hrs by WST assay; conditions: A549, 24 h
KB = assay: Cytotoxicity against human KB cells after 24 hrs by WST assay
[1] = Cytotoxicity against human HCT116 cells after 24 hrs by WST assay; conditions: HCT-116, 24 h

Work on `CC1=C(C)[C@H]2[C@H](Cc3ccccc3)NC(=O)[C@]23OC(=O)/C=C/C(=O)CCC[C@@H](C)C/C=C/[C@H]3[C@@H]1O` yielded an IC50 (A549) of 29.2 µM, an IC50 (KB) of 19.9 µM and an IC50 [1] of 38.1 µM.

Molecule `CC1=C(C)[C@H]2[C@H](Cc3ccccc3)NC(=O)[C@]23OC(=O)CCC(=O)CCC[C@@H](C)C/C=C/[C@H]3[C@@H]1O` has an IC50 (A549) of 37.3 µM, an IC50 (KB) greater than 40 µM and an IC50 [1] greater than 40 µM.

With `CC1=C(C)[C@H]2[C@H](Cc3ccccc3)NC(=O)[C@]23OC(=O)CC[C@H](O)CCC[C@@H](C)C/C=C/[C@H]3[C@@H]1O` the IC50 (A549) was greater than 40 µM, the IC50 (KB) was greater than 40 µM and the IC50 [1] was greater than 40 µM.

For `C=C1[C@@H](C)[C@H]2[C@H](Cc3ccccc3)NC(=O)[C@]23OC(=O)CCC(=O)CCC[C@@H](C)C/C=C/[C@H]3[C@@H]1O`, the IC50 (A549) was 39.3 µM, the IC50 (KB) was 37.3 µM and the IC50 [1] was 39.3 µM.

With `CC1=C[C@@H]2/C=C/C[C@H](C)CCCC/C=C/C(=O)O[C@]23C(=O)N[C@@H](Cc2ccccc2)[C@@H]3[C@@H]1C` the IC50 (A549) was 36.2 µM, the IC50 (KB) was 19.7 µM and the IC50 [1] was 18.2 µM.

In the case of `COc1cccc2c1C(=O)c1c(O)c3c(c(O)c1C2=O)C[C@@](O)(C(=O)CO)C[C@@H]3O[C@H]1C[C@H](N)[C@H](O)[C@H](C)O1` [DOXORUBICIN], the IC50 (A549) is reported as 1.3 µM, the IC50 (KB) is reported as 4.3 µM and the IC50 [1] is reported as 2.2 µM.
